Experimental data taken from patent publication US20240366584A1, “COMBINATION TREATMENT OF CANCER WITH A PARP INHIBITOR AND A LIPOPHILIC STATIN” (TESARO, INC., priority 2021, published 2024).
Like-named read-outs stand apart in the source and are kept apart here.

What was measured:
[1] = cited from earlier work
[2] = system: participants with advanced ovarian cancer; assay: post-hoc analysis of the PRIMA clinical trial (progression free survival); type: in vivo, human; details: post hoc subgroups, Kaplan-Meier
Excerpt: This example describes a post-hoc analysis of the PRIMA clinical trial.
This was an exploratory post hoc analysis.
For the subgroup analyses, we performed a two-sided log-rank test using randomization stratification factors (best response to last platinum; HRD status; and time from penultimate platinum to progression) to analyze PFS (progression free survival), which was summarized with the use of Kaplan-Meier methods. We estimated hazard ratios with two-sided 95% Confidence Intervals (CIs) using a stratified Cox proportional hazards (PH) model, with the stratification factors used in randomization.
The Cox model for interaction testing also included stratification factors used in randomization as covariates.

[3] = pH 7.0, Shitara et al., Pharmacology & Therapeutics, 2006
[4] = pH 7.4, Matre et al., Vascular Health and Risk Management, 2016

| Structure (SMILES) | log D [1, 3] | log D [1, 4] | log D ([1]; pH 7.4, Shitara et al., Pharmacology & Therapeutics, 2006) | mPFS [2] [months] |
| --- | --- | --- | --- | --- |
| CC[C@H](C)C(=O)O[C@H]1C[C@H](O)C=C2C=C[C@H](C)[C@H](CC[C@@H](O)C[C@@H](O)CC(=O)O)[C@H]21 [pravastatin] | −0.47 | – | – | – |
| O=C(O)C[C@H](O)C[C@H](O)/C=C/c1c(C2CC2)nc2ccccc2c1-c1ccc(F)cc1 [pitavastatin] | 1.50 | 1.50 | – | – |
| CC(C)c1nc(N(C)S(C)(=O)=O)nc(-c2ccc(F)cc2)c1/C=C/[C@@H](O)C[C@@H](O)CC(=O)O [rosuvastatin] | – | – | −0.25 to −0.50 | – |
| CC(C)n1c(/C=C/C(O)CC(O)CC(=O)O)c(-c2ccc(F)cc2)c2ccccc21 (stereo not drawn) [fluvastatin] | 1.75 | 1.75 | – | – |
| NC(=O)c1cccc2cn(-c3ccc([C@@H]4CCCNC4)cc3)nc12 [niraparib] | – | – | – | 13.7 |
| CC[C@H](C)C(=O)O[C@H]1C[C@@H](C)C=C2C=C[C@H](C)[C@H](CC[C@@H]3C[C@@H](O)CC(=O)O3)[C@H]21 [lovastatin] | 3.91 | 2.59 | – | – |
